The text below walks through data of patent US12427144B2, “Compounds and methods for the targeted degradation of androgen receptor” (Arvinas Operations, Inc., priority 2019, dated 2025).

This assay deals with T1, Androgen Receptor (AR) (Homo sapiens, UniProt P10275).
T1 construct: endogenous in cells; host or cells: VCaP
T1 sequence (P10275 1-920): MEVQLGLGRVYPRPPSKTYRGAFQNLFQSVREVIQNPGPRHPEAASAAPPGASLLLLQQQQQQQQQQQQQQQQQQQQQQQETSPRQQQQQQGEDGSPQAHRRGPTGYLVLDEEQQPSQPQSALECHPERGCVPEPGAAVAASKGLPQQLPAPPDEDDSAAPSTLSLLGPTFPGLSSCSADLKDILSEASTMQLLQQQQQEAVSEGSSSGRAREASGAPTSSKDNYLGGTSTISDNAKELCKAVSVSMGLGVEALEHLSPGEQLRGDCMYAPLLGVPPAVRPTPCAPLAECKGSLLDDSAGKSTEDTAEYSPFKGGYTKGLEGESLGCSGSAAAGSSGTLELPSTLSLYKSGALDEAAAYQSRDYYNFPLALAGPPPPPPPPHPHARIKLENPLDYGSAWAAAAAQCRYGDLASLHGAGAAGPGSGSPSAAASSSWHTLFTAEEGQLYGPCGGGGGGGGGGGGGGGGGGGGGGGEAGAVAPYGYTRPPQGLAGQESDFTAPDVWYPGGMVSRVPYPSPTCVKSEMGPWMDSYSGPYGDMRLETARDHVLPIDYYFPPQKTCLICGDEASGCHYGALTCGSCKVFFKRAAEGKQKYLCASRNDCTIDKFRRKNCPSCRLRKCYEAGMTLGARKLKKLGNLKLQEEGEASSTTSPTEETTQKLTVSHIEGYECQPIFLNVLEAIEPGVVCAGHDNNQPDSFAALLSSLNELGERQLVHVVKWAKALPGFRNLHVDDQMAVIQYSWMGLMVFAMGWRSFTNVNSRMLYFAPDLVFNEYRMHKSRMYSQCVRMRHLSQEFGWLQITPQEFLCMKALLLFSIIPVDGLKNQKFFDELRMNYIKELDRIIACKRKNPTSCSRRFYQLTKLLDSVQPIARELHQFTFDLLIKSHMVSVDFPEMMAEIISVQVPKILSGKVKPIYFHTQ
In words: AR immunofluorescence staining, high content imager, VCaP cells. The format is cell-based. The following applies: for DC50: AR degradation by immunofluorescence; for Dmax: maximal AR degradation. As for the experimental part:
AR Immunofluorescence Staining of Cells for the High Content Imager was performed as follows: Following treatment of the cells with compound (using the central 60 wells of a 96-well plate), media was removed by aspiration, followed by addition of 50 μL per well of 4% paraformaldehyde (PFA) in PBS supplemented with 2 mM MgCl2 and 2 mM CaCl2. Fixed cells were incubated at RT for 15 minutes. For particularly low adherence cell lines (e.g., VCaP), a 2× solution of 8% PFA was added directly to wells instead. Cells were washed once with 200 μL PBS/well. To permeabilize cells 50 μL/well of 0.1% Triton X-100 in PBS was added and incubated for 5 minutes. Cells were washed once with 200 μL PBSS/well. 100 μL/well of Licor Odyssey Blocking Buffer was added for 1 hour at 20° C. Wells were aspirated and AR antibody (1:1000 in Licor Odyssey blocking buffer; 50 μL/well; CST 5153s) was added. Plates were incubated overnight at 4° C. Plates were washed 3 times with 200 EL PBS/well. The appropriate secondary antibody was added (50 μL/well; diluted in Licor Odyssey blocking buffer) and incubated for 1 hour at RT in the dark as prepared below using Anti-rabbit FITC (1:5000; […]) and Phalloidin-Alexafluor 648 (1:500; […]). Cells were washed once with 200 μL PBS/well. 50 μL DAPI or Hoechst 33342 diluted 1:1000 in Licor Odyssey blocking buffer was added to the wells. Cells were washed 3 times with 200 μL PBS/well. The plates were covered with a clear plastic sealer and refrigerated in the dark until ready to analyze. The cells were analyzed using a Molecular Devices IXM high content imager and analyzed using Molecular Devices metaXpress software suite.

As to `CC(C)N(CC1CCN(c2cnc(C(=O)N[C@H]3CC[C@H](Oc4ccc(C#N)c(Cl)c4)CC3)cn2)CC1)[C@H]1C[C@H](Oc2ccc(C(=O)NC3CCC(=O)NC3=O)cc2)C1` (stereo partly shown) [Compound 27, N-[4-(3-chloro-4-cyano-phenoxy)cyclohexyl]-5-[4-[[[3-[4-[(2,6-dioxo-3-piperidyl)carbamoyl]phenoxy]cyclobutyl]-isopropyl-amino]methyl]-1-piperidyl]pyrazine-2-carboxamide], the 50% degradation concentration (DC50) was < 1 nM and the greatest degradation seen (Dmax) was ≥ 70%.
For `N#Cc1ccc(O[C@H]2CC[C@H](NC(=O)c3ccc(N4CCC(CN5CCN(c6ccc(C(=O)NC7CCC(=O)NC7=O)nn6)CC5)CC4)nn3)CC2)cc1Cl` (stereo partly shown) [Compound 28, N-[4-(3-chloro-4-cyano-phenoxy)cyclohexyl]-6-[4-[[4-[6-[(2,6-dioxo-3-piperidyl)carbamoyl]pyridazin-3-yl]piperazin-1-yl]methyl]-1-piperidyl]pyridazine-3-carboxamide], in that order: < 1 nM and ≥ 70%.
For the molecule `N#Cc1ccc(O[C@H]2CC[C@H](NC(=O)c3ccc(N4CCC(CN5CCN(c6cccc(C(=O)NC7CCC(=O)NC7=O)c6)CC5)CC4)nn3)CC2)cc1Cl` (stereo partly drawn) [Compound 29, N-((1R,4R)-4-(3-chloro-4-cyanophenoxy)cyclohexyl)-6-(4-((4-(3-((2,6-dioxopiperidin-3-yl)carbamoyl)phenyl)piperazin-1-yl)methyl)piperidin-1-yl)pyridazine-3-carboxamide], the half-maximal degradation concentration (DC50) was < 1 nM and the greatest degradation seen (Dmax) is < 50%.
As to `N#Cc1ccc(O[C@H]2CC[C@H](NC(=O)c3ccc(N4CCC(CN5CCN(c6ccc(C(=O)NC7CCC(=O)NC7=O)cn6)CC5)CC4)nn3)CC2)cc1Cl` (stereo partly drawn) [Compound 30, N-((1R,4R)-4-(3-chloro-4-cyanophenoxy)cyclohexyl)-6-(4-((4-(5-((2,6-dioxopiperidin-3-yl)carbamoyl)pyridin-2-yl)piperazin-1-yl)methyl)piperidin-1-yl)pyridazine-3-carboxamide], the half-maximal degradation concentration (DC50) was < 1 nM and the Dmax is ≥ 70%.
As for `CN(C(=O)c1ccc(N2CCN(CC3CCN(c4ccc(C(=O)N[C@H]5CC[C@H](Oc6ccc(C#N)c(Cl)c6)CC5)nn4)CC3)CC2)cc1F)C1CCC(=O)NC1=O` (stereo partly drawn) [Compound 31, N-((1R,4R)-4-(3-chloro-4-cyanophenoxy)cyclohexyl)-6-(4-((4-(4-((2,6-dioxopiperidin-3-yl)(methyl)carbamoyl)-3-fluorophenyl)piperazin-1-yl)methyl)piperidin-1-yl)pyridazine-3-carboxamide], the 50% degradation concentration (DC50) is < 1 nM and the greatest degradation seen (Dmax) fell in the range of 50 to 70%.
`CCN(C(=O)c1ccc(N2CCN(CC3CCN(c4ccc(C(=O)N[C@H]5CC[C@H](Oc6ccc(C#N)c(Cl)c6)CC5)nn4)CC3)CC2)cc1)C1CCC(=O)NC1=O` (stereo partly drawn) [Compound 32, N-((1R,4R)-4-(3-chloro-4-cyanophenoxy)cyclohexyl)-6-(4-((4-(4-((2,6-dioxopiperidin-3-yl)(ethyl)carbamoyl)phenyl)piperazin-1-yl)methyl)piperidin-1-yl)pyridazine-3-carboxamide]: the DC50 is ≥ 100 nM and the greatest degradation seen (Dmax) is < 50%.
With `Cc1cc(O[C@H]2C(C)(C)[C@H](NC(=O)c3ccc(N4CCC(CN5CCN(c6cnc(C(=O)N[C@H]7CCC(=O)NC7=O)cn6)CC5)CC4)cc3)C2(C)C)cc(C)c1C#N` [Compound 33, 5-[4-[[1-[4-[[3-(4-cyano-3,5-dimethyl-phenoxy)-2,2,4,4-tetramethyl-cyclobutyl]carbamoyl]phenyl]-4-piperidyl]methyl]piperazin-1-yl]-N-[(3S)-2,6-dioxo-3-piperidyl]pyrazine-2-carboxamide], the 50% degradation concentration (DC50) was < 1 nM and the greatest degradation seen (Dmax) is ≥ 70%.
Regarding `COc1cc(O[C@H]2C(C)(C)[C@H](NC(=O)c3ccc(N4CCC5(CC4)CN([C@H]4C[C@H](Oc6ccc(C(=O)N[C@H]7CCC(=O)NC7=O)c(OC)c6)C4)CCO5)cc3)C2(C)C)ccc1C#N` [Compound 34, 4-[3-[9-[4-[[3-(4-cyano-3-methoxy-phenoxy)-2,2,4,4-tetramethyl-cyclobutyl]carbamoyl]phenyl]-1-oxa-4,9-diazaspiro[5.5]undecan-4-yl]cyclobutoxy]-N-[(3S)-2,6-dioxo-3-piperidyl]-2-methoxy-benzamide], the DC50 was < 1 nM and the maximal degradation (Dmax) was ≥ 70%.
`COc1cc(O[C@H]2C[C@H](N3CCOC4(CCN(c5ccc(C(=O)N[C@H]6C(C)(C)[C@H](Oc7cc(C)c(C#N)c(C)c7)C6(C)C)cc5)CC4)C3)C2)ccc1C(=O)N[C@H]1CCC(=O)NC1=O` [Compound 35, 4-[3-[9-[4-[[3-(4-cyano-3,5-dimethyl-phenoxy)-2,2,4,4-tetramethyl-cyclobutyl]carbamoyl]phenyl]-1-oxa-4,9-diazaspiro[5.5]undecan-4-yl]cyclobutoxy]-N-[(3S)-2,6-dioxo-3-piperidyl]-2-methoxy-benzamide]: the DC50 is < 1 nM and the Dmax is ≥ 70%.
Consider `CC1(C)[C@H](NC(=O)c2ccc(C#CC3CCN(C4CCN(c5ccc(C(=O)N[C@H]6CCC(=O)NC6=O)c(F)c5)CC4)CC3)cc2)C(C)(C)[C@H]1Oc1ccc(C#N)c(Cl)c1` [Compound 36, N-[(3S)-2,6-dioxopiperidin-3-yl]-2-fluoro-4-{4-[2-(4-{[(1r,3r)-3-(3-chloro-4-cyanophenoxy)-2,2,4,4-tetramethylcyclobutyl]carbamoyl}phenyl)ethynyl]-[1,4′-bipiperidin]-1′-yl}benzamide], for which the 50% degradation concentration (DC50) was < 1 nM and the maximal degradation (Dmax) was ≥ 70%.
With `COc1cc(O[C@H]2C(C)(C)[C@H](NC(=O)c3ccc(N4CCC(CN5CCN(c6cnc(C(=O)N[C@H]7CCC(=O)NC7=O)cn6)CC5)CC4)cc3)C2(C)C)ccc1C#N` [Compound 37, 5-[4-[[1-[4-[[3-(4-cyano-3-methoxy-phenoxy)-2,2,4,4-tetramethyl-cyclobutyl]carbamoyl]phenyl]-4-piperidyl]methyl]piperazin-1-yl]-N-[(3S)-2,6-dioxo-3-piperidyl]pyrazine-2-carboxamide], the DC50 was < 1 nM and the maximal degradation (Dmax) was ≥ 70%.
In the case of `COc1cc(O[C@H]2C(C)(C)[C@H](NC(=O)c3ccc(N4CCC(CN5CCN(c6cnc(C(=O)N[C@H]7CCC(=O)NC7=O)nc6)CC5)CC4)cc3)C2(C)C)ccc1C#N` [Compound 39, 5-(4-((1-(4-(((1r,3r)-3-(4-cyano-3-methoxyphenoxy)-2,2,4,4-tetramethylcyclobutyl)carbamoyl)phenyl)piperidin-4-yl)methyl)piperazin-1-yl)-N—((S)-2,6-dioxopiperidin-3-yl)pyrimidine-2-carboxamide], the 50% degradation concentration (DC50) was < 1 nM and the greatest degradation seen (Dmax) was ≥ 70%.
On to `COc1cc(O[C@H]2C(C)(C)[C@H](NC(=O)c3ccc(N4CCC(CN5CCN(c6ccc(C(=O)N[C@H]7CCC(=O)NC7=O)nc6)CC5)CC4)cc3)C2(C)C)ccc1C#N` [Compound 40, 5-[4-[[1-[4-[[3-(4-cyano-3-methoxy-phenoxy)-2,2,4,4-tetramethyl-cyclobutyl]carbamoyl]phenyl]-4-piperidyl]methyl]piperazin-1-yl]-N-[(3S)-2,6-dioxo-3-piperidyl]pyridine-2-carboxamide], for which the half-maximal degradation concentration (DC50) is < 1 nM and the greatest degradation seen (Dmax) was ≥ 70%.
Turning to `Cc1cc(O[C@H]2C(C)(C)[C@H](NC(=O)c3ccc(N4CCC(CN5CCN(c6ccc(C(=O)N[C@H]7CCC(=O)NC7=O)nc6)CC5)CC4)cc3)C2(C)C)cc(C)c1C#N` [Compound 41, 5-[4-[[1-[4-[[3-(4-cyano-3,5-dimethyl-phenoxy)-2,2,4,4-tetramethyl-cyclobutyl]carbamoyl]phenyl]-4-piperidyl]methyl]piperazin-1-yl]-N-[(3S)-2,6-dioxo-3-piperidyl]pyridine-2-carboxamide], the DC50 was < 1 nM and the maximal degradation (Dmax) was ≥ 70%.

Usually DC50 stands for the concentration at which degradation of the target reaches its halfway point. Low values mean degradation at low concentration, high ones degradation only at high concentration. By Dmax is commonly meant the greatest extent of degradation seen. Higher therefore signals a fuller loss of target.
